In this assay the target is T1, 5-lipoxygenase (Cavia porcellus, UniProt A0A286X958).
T1 construct: The 5-LO was concentrated in a known manner from PMNs of male Dunkin-Hartley guinea-pigs; endogenous in cells; host or cells: peritoneal PMNs of male Dunkin-Hartley guinea-pigs, homogenized; 10,000 x g supernatant used as enzyme solution
T1 sequence (A0A286X958 1-674): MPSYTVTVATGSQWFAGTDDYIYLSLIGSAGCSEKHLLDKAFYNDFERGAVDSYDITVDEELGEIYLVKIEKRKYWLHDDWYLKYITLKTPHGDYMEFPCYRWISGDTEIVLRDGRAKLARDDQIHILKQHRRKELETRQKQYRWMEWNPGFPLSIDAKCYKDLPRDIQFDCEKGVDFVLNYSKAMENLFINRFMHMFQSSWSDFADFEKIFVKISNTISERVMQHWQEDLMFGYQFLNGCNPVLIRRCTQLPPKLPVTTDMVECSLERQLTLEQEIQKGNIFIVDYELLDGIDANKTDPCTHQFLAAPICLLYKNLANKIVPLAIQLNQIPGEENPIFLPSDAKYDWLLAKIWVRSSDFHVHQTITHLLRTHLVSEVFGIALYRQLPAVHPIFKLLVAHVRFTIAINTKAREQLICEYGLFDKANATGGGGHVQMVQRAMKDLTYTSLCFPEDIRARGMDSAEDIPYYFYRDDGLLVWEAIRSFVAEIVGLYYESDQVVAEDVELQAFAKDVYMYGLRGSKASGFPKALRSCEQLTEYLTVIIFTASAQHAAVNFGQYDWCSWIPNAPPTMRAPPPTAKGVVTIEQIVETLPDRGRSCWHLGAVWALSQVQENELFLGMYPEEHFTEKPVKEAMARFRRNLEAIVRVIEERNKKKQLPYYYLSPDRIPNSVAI
Nature of the assay: inhibitory activity on free 5-lipoxygenase concentrated from peritoneal PMNs of the guinea-pig (5-HETE formation). The format is biochemical. To be noted: 10^-5 mole/liter; guinea-pig 5-LO, 37° C.; read-out: In vitro % inhibitory activity on 5-HETE formation caused by free 5-LO. The text has this: 4b. In vitro determination of inhibitory activity on 5-lipoxygenase concentrated from peritoneal PMNs of the guinea-pig.
An inhibition of 5-lipoxygenase can be caused by direct inhibitory action of the substances on the enzyme and/or by interference with the activation of the enzyme. While in test 4a the 5-lipoxygenase inhibition of the substances was investigated in rat PMN cells, in test 4b the inhibitory activity of the substances was investigated on free 5-LO concentrated from guinea-pig PMN cells according to the method of D. Aharony et al., J. Biol. Chem. 261 (1986), 11512-11519 (1986).
The 5-LO was concentrated in a known manner from PMNs of male Dunkin-Hartley guinea-pigs (body weight 400 to 500 g) as follows. 10 ml of a solution containing 27.9 g/l of sodium thioglycolate were injected i.p. into the animals in order to induce the PMN invasion as a result of this inflammatory stimulus. After 22 hours, the animals were sacrificed by lethal ether anaesthesia. 70 ml of HBSS without Ca^++ and Mg^++ ions and containing 0.2% by weight of sodium citrate were then injected into the abdominal cavity. The cell suspension (>80% of the cells are PMNs) was withdrawn from the abdominal cavity, filtered through a cheese-making filter cloth, and washed twice with a 50 mM potassium phosphate buffer solution of pH 7.4, which contained 0.5 mM ethylenediaminetetraacetic acid, 1% by weight of gelatine and 20 μM indomethacin. The cells were resuspended, and the PMN suspension containing 10^8 cells/ml was homogenized three times for 15 seconds each in an ice-bath in a homogenizer of the Labsonic™ type set at high speed. The resulting suspension was centrifuged at 4° C. (15 minutes at 10,000×g). The supernatant liquid was used for the investigation as a solution of the free 5-LO enzyme.
The experiments were carried out at 37° C. for 7 minutes using 0.625 ml samples of this enzyme solution. For the experiments, the enzyme solution (=equivalent of 2.5×10^7 cells), 0.5 mM glutathione, 1 mM ATP and 0.3 mM calcium chloride were added to test tubes. […] of the test substance were added to the samples dissolved in sufficient dimethylformamide such that the dimethylformamide concentration in each test tube is 0.5%. Only dimethylformamide was added to the control samples. After 2 minutes, the formation of 5-(S)-hydroxy-6,8,11,14-eicosatetraenoic acid (=[…]) was initiated by addition 10 μM arachidonic acid. After 5 minutes, the reaction was terminated by addition of 0.625 ml of a mixture of methyl acetate/methanol/0.2 m citric acid 15:2:0.5 v/v/v. 5-HETE was extracted twice using this solvent mixture. The 5-HETE-containing phases were combined and evaporated to dryness under a nitrogen atmosphere. The residue was taken up in a mixture of methanol/water/acetic acid 75:21:0.02 v/v/v having a pH of 5.7, and the solution was investigated for its content of 5-HETE by means of reverse phase HPLC. To accomplish this, a […] silanized silica gel column (Hichrom® ODS2, 250×4.6 mm) was employed as the adsorbent and a mixture of methanol/water/acetic acid 75:21:0.02 adjusted to pH 5.7 with ammonia and having a flow rate of 1 ml/min was used as the eluent. 5-HETE, which was eluted as a single peak after 20 minutes, was identified by comparison with standard solutions eluted at the same time and determined using a UV light detector at a wavelength of 235 nm. Quantitative determination was carried out by comparison of the peak area obtained with peak areas occurring in the calibrated standard solutions. From the 5-HETE contents of the samples determined, the inhibitory activity of the test substances was calculated in % inhibition of 5-HETE synthesis in comparison to the control samples containing no test substance.

Each structure is given as a SMILES string.

For the molecule `COc1ccc2c3c1c(C)c(-c1ccc(O)cc1)n3CC(CCN1CCN(c3cc(C)ccn3)CC1)O2` (centres unmarked) [Example 3, 2,3-Dihydro-5-(4-hydroxyphenyl)-7-methoxy-6-methyl-2-[2-(4-(4-methylpyridin-2-yl)piperazin-1-yl)ethyl]pyrrolo[1,2,3-de]-1,4-benzoxazine], the inhibition at 10 µM amounted to 53%.

In the case of `Cc1ccnc(N2CCN(CCC3Cn4c(-c5ccc(O)cc5)c(C)c5c(O)ccc(c54)O3)CC2)c1` (centres unmarked) [Example 4, 2,3-Dihydro-7-hydroxy-5-(4-hydroxyphenyl)-6-methyl-2-[2-(4-(4-methylpyridin-2-yl)piperazin-1-yl)ethyl]pyrrolo[1,2,3-de]-1,4-benzoxazine], the inhibition at 10 µM was determined as 100%.

Regarding `Cc1ccnc(N2CCN(C(=O)CCCC3Cn4c(-c5cc(C)c(O)c(C)c5)c(C)c5cccc(c54)O3)CC2)c1` (centres unmarked) [Example 9, 2,3-Dihydro-5-(3,5-dimethyl-4-hydroxyphenyl)-6-methyl-2-[4-(4-(4-methylpyridin-2-yl)piperazin-1-yl)-4-oxobutyl]-pyrrolo[1,2,3-de]-1,4-benzoxazine], the inhibition at 10 µM turned out to be 88%.

With `COc1cc(-c2c(C)c3cccc4c3n2CC(CCN2CCN(c3cc(C)ccn3)CC2)O4)ccc1O` (centres unmarked) [Example 12], the inhibition at 10 µM was determined as 100%.

For `Cc1ccnc(N2CCN(CCC3Cn4c(-c5ccc(O)c(O)c5)c(C)c5cccc(c54)O3)CC2)c1` (centres unmarked) [Example 13], the inhibition at 10 µM worked out at 99%.

Turning to `Cc1ccnc(N2CCN(C(=O)CCC3Cn4c(-c5ccc(O)cc5)c(C)c5cccc(c54)O3)CC2)c1` (centres unmarked) [Example 15], the inhibition at 10 µM is 94%.

With `Cc1ccnc(N2CCN(CCC3Cn4c(-c5cc(C)c(O)c(C)c5)c(C)c5cccc(c54)O3)CC2)c1` (centres unmarked) [Example 20], the inhibition at 10 µM was 100%.

Consider `Cc1cc(-c2c(C)c3cccc4c3n2CC(CCCC(=O)N2CCN(c3ccccn3)CC2)O4)cc(C)c1O` (centres unmarked) [Example 23], for which the inhibition at 10 µM worked out at 93%.

Turning to `Cc1ccnc(N2CCN(C(=O)CCC3Cn4c(-c5cc(C)c(O)c(C)c5)c(C)c5cccc(c54)O3)CC2)c1` (centres unmarked) [Example 25], the inhibition at 10 µM stood at 92%.

`Cc1cc(-c2c(C)c3cccc4c3n2CC(CCC(=O)N2CCN(c3ccccn3)CC2)O4)cc(C)c1O` (centres unmarked) [Example 26]: the inhibition at 10 µM was determined as 96%.

For the molecule `Cc1cc(-c2c(C)c3c(F)ccc4c3n2CC(CCN2CCN(c3ccccn3)CC2)O4)cc(C)c1O` (centres unmarked) [Example 27], the inhibition at 10 µM is 50%.

Take `Cc1ccnc(N2CCN(CCC3Cn4c(-c5cc(C)c(O)c(C)c5)c(C)c5c(F)ccc(c54)O3)CC2)c1` (centres unmarked) [Example 28]: the inhibition at 10 µM came out at 44%.

On to `Cc1ccnc(N2CCN(CCCC3Cn4c(-c5cc(C)c(O)c(C)c5)c(C)c5c(F)ccc(c54)O3)CC2)c1` (centres unmarked) [Example 29], for which the inhibition at 10 µM was determined as 67%.

Consider `Cc1ccc(N2CCN(C(=O)CCC3Cn4c(-c5ccc(O)cc5)c(C)c5cccc(c54)O3)CC2)nc1` (centres unmarked) [Example 34], for which the inhibition at 10 µM was 97%.

Consider `COc1cc(-c2c(C)c3cccc4c3n2CC(CCC(=O)N2CCN(c3ccc(C)cn3)CC2)O4)ccc1O` (centres unmarked) [Example 39], for which the inhibition at 10 µM was 100%.

For the molecule `Cc1ccnc(N2CCN(CCC3Cn4c(-c5cc(C)c(O)c(C)c5)c(C)c5cc(F)cc(c54)O3)CC2)c1` (centres unmarked) [Example 42], the inhibition at 10 µM stood at 55%.

`COc1cc2c3c(c1)c(C)c(-c1cc(C)c(O)c(C)c1)n3CC(CCN1CCN(c3cc(C)ccn3)CC1)O2` (centres unmarked) [Example 43]: the inhibition at 10 µM turned out to be 77%.

For `Cc1ccnc(N2CCN(CCC3Cn4c(-c5cc(C)c(O)c(C)c5)c(C)c5cc(O)cc(c54)O3)CC2)c1` (centres unmarked) [Example 44], the inhibition at 10 µM is 98%.

Take `Cc1cc(-c2c(C)c3cccc4c3n2CC(CCCCN2CCN(c3ccccn3)CC2)O4)cc(C)c1O` (centres unmarked) [Example 65]: the inhibition at 10 µM came to 99%.

For `Cc1ccnc(N2CCN(C(=O)CCC3Cn4c(-c5cc(C)c(O)c(C)c5)c(C)c5c(O)ccc(c54)O3)CC2)c1` (centres unmarked) [Example 67], the inhibition at 10 µM was found to be 100%.

As to `Cc1ccnc(N2CCN(C(=O)CCC3Cn4c(-c5ccc(O)cc5)c(C)c5c(O)ccc(c54)O3)CC2)c1` (centres unmarked) [Example 69], the inhibition at 10 µM worked out at 100%.

As to `Cc1cc(-c2c(C)c3c(O)ccc4c3n2CC(CCC(=O)N2CCN(c3ccccn3)CC2)O4)cc(C)c1O` (centres unmarked) [Example 71], the inhibition at 10 µM is 100%.

As for `COc1cc(-c2c(C)c3c(O)ccc4c3n2CC(CCC(=O)N2CCN(c3ccccn3)CC2)O4)cc(C)c1O` (centres unmarked) [Example 72], the inhibition at 10 µM turned out to be 100%.

For the molecule `Cc1ccnc(N2CCN(CCCC3Cn4c(-c5cc(C)c(O)c(C)c5)c(C)c5c(O)ccc(c54)O3)CC2)c1` (centres unmarked) [Example 73], the inhibition at 10 µM was 100%.

As for `Cc1cccnc1N1CCN(CCCC2Cn3c(-c4cc(C)c(O)c(C)c4)c(C)c4c(O)ccc(c43)O2)CC1` (centres unmarked) [Example 74], the inhibition at 10 µM was found to be 100%.

Take `Cc1cc(-c2c(C)c3c(OCc4ccccc4)ccc4c3n2CC(CCC(=O)N2CCN(c3ccccn3)CC2)O4)cc(C)c1O` (centres unmarked) [Example 75]: the inhibition at 10 µM was determined as 100%.

For the origin of these results see patent US5474988A, “5-phenylpyrrolo-1,4-benzoxazine and 5-phenylpyrrolo-1,4-benzothiazine compounds, process and intermediates for their production and pharmaceutical compositions containing them” (Kali-Chemie Pharma GmbH, priority 1993, dated 1995).
